# Measured values published in patent US20230399313A1, “BIOLOGICAL ACTIVITIES OF 5-(2-(4-(4-FLUORO-2-METHYL-1H-INDOL-5-YLOXY)-6-METHOXYQUINOLIN-7-YLOXY)ETHYL)-5-AZASPIRO[2.4]-HEPTAN-7-OL CRYSTALLINE, PHOSPHORIC ACID SALT AND ITS ENANTIOMERS” (Advenchen Pharmaceuticals, LLC, priority 2022, published 2023).
# Legend:
# [1] = system: murine colorectal CT26 cell line; assay: Murine colorectal CT26 model, combination with anti-mouse PD-1 antibody; type: in vivo, mice; conditions: for Mean tumor volume D0: D0 (first drug administration time, baseline); for Mean tumor volume D0 / Mean tumor volume D17 / T/C D17: CT26 mice
# Molt-4 = assay: In vitro MTT (proliferation) assay; type: cell-based; conditions: Homo sapiens, Blood
# HL-60 = assay: In vitro MTT (proliferation) assay; type: cell-based; conditions: Homo sapiens, Blood
# KDR(h) (VEGFr2) = KDR(h) (VEGFr2) (Homo sapiens, UniProt P35968); assay: Kinase inhibition; type: biochemical
# Source text: (§1) […]. In vitro tyrosine kinase inhibition activities can be measured via commercial resources. Some of these tests can also be contracted with Eurofin or Reaction Biology for screening.
# For the kinase inhibition tests, receptor tyrosine kinases are selected from FGFR1(h), FGFR2(h), FGFR3(h), Flt1(h) (VEGFr1), Flt4(h) (VEGFr3), KDR(h) (VEGFr2), Aurora-B, PDGFRα(h) and PDGFRβ(h). […]. […]
# 95-D = assay: In vitro MTT (proliferation) assay; type: cell-based; conditions: Lung
# Flt4(h) (VEGFr3) = Flt4(h) (VEGFr3) (Homo sapiens, UniProt P35916); assay: Kinase inhibition; type: biochemical
# Chain of Flt4(h) (VEGFr3) (P35916 25-1363): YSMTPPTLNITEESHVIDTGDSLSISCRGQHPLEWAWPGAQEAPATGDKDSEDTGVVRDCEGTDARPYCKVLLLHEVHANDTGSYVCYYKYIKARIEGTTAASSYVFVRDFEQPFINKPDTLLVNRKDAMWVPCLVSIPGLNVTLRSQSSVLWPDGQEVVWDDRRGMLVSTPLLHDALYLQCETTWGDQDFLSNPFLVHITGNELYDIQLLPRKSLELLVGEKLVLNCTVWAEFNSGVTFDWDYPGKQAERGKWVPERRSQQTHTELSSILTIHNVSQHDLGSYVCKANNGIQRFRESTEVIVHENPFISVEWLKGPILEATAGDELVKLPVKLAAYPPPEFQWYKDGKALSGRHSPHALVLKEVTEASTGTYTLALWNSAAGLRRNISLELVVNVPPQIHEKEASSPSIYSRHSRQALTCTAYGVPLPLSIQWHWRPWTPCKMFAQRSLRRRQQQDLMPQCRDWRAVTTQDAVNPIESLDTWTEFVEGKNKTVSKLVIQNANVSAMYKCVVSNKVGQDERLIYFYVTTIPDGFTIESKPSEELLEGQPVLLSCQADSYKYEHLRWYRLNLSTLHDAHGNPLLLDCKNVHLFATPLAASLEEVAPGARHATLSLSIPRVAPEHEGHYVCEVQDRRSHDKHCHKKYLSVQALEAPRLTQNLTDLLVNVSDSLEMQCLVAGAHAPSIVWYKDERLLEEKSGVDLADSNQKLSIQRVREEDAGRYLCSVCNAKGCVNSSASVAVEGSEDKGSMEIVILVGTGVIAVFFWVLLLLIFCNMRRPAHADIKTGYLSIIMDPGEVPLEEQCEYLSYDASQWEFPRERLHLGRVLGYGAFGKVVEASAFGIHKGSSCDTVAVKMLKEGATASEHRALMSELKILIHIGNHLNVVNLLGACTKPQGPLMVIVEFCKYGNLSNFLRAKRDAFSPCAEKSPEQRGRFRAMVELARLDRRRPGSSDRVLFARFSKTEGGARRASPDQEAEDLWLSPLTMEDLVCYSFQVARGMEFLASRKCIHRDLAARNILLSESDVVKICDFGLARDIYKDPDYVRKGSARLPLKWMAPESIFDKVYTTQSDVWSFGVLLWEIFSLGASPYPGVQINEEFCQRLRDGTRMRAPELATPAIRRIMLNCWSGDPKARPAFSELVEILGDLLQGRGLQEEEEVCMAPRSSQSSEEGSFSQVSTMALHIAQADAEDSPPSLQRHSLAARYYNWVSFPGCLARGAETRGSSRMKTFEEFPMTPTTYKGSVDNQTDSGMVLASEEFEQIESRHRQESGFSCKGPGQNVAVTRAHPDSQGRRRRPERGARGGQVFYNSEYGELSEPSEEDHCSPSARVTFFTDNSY
# Source text: (§2) In vitro tyrosine kinase inhibition activities can be measured via commercial resources. Some of these tests can also be contracted with Eurofin or Reaction Biology for screening.
# (§3) For the kinase inhibition tests, receptor tyrosine kinases are selected from FGFR1(h), FGFR2(h), FGFR3(h), Flt1(h) (VEGFr1), Flt4(h) (VEGFr3), KDR(h) (VEGFr2), Aurora-B, PDGFRα(h) and PDGFRβ(h).
# FGFR2(h) = FGFR2(h) (Homo sapiens, UniProt P21802); assay: Kinase inhibition; type: biochemical
# Chain of FGFR2(h) (P21802 22-821): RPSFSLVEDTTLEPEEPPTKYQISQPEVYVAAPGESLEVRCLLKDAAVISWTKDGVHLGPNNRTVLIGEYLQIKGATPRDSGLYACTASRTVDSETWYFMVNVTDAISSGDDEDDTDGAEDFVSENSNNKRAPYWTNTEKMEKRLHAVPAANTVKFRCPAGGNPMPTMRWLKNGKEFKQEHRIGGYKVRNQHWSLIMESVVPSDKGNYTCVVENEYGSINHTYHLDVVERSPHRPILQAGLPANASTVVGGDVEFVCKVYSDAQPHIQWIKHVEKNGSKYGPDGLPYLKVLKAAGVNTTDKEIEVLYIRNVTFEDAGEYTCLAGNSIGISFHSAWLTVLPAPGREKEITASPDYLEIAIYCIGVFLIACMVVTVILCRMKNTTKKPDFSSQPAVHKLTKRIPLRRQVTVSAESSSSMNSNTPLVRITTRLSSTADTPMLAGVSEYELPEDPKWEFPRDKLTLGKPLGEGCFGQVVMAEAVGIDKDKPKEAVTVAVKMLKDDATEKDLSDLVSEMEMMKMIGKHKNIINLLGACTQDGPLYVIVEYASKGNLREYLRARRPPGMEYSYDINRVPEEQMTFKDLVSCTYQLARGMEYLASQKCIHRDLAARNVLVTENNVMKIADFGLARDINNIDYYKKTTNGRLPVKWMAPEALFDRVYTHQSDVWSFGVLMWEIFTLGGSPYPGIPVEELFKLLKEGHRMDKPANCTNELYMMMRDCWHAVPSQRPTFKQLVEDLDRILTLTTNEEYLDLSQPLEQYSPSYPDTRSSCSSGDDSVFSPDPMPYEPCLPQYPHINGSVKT
# Source text: as §2, §3
# FGFR1(h) = FGFR1(h) (Homo sapiens, UniProt P11362); assay: Kinase inhibition; type: biochemical
# Source text: as §2, §3
# FGFR3(h) = FGFR3(h) (Homo sapiens, UniProt P22607); assay: Kinase inhibition; type: biochemical
# Chain of FGFR3(h) (P22607 23-806): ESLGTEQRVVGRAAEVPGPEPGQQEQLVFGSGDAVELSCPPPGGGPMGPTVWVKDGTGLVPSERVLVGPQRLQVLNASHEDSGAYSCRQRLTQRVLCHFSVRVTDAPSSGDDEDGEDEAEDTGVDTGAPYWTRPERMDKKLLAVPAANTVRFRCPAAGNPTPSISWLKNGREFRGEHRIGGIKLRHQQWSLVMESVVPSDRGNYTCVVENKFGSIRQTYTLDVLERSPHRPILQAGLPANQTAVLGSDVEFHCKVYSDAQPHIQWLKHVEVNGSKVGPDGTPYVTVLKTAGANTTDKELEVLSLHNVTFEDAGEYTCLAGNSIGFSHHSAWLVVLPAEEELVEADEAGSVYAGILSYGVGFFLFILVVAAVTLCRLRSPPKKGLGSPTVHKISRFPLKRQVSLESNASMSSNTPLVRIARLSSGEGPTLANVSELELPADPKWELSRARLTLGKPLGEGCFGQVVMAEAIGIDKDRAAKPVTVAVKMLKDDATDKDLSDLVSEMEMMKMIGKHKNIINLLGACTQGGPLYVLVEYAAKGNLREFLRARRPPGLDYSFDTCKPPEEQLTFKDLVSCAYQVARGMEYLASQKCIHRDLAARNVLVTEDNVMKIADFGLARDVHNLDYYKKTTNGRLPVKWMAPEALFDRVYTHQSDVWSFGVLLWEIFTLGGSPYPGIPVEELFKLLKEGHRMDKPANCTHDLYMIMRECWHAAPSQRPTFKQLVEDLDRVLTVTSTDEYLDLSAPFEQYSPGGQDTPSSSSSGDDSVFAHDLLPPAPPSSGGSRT
# Source text: as §2, §3
# Flt1(h) (VEGFr1) = Flt1(h) (VEGFr1) (Homo sapiens, UniProt P17948); assay: Kinase inhibition; type: biochemical
# Source text: as §2, §3
# Aurora-B = Aurora-B (Homo sapiens, UniProt Q96GD4); assay: Kinase inhibition; type: biochemical
# Chain of Aurora-B (Q96GD4 whole entry): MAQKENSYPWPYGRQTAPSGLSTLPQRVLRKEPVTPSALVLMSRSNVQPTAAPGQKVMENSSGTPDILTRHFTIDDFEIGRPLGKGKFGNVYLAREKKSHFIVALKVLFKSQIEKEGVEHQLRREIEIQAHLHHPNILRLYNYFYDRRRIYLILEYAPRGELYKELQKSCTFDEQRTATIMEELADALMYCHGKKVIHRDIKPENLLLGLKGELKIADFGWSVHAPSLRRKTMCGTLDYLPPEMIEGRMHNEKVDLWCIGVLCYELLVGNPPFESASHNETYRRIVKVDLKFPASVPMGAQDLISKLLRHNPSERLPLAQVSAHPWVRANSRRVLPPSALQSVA
# Source text: as §2, §3
# [2] = system: colon cancer cell line HT29; assay: Combination therapy MTT assay; type: cell-based, human
# Experimental: (§4) Compound A-Xln combination therapy MTT assay results were investigated. 100 μl of cell suspension with a concentration of 5×10^4 cells/ml was added to each well of a 96-well plate, and place in a 37° C., 5% CO2 incubator. After 24 h, Compound A-Xln sample solution was added according to Table 13, 10 μl/well for double-duplicate wells. After 72 hours at 37° C. and 5% CO2 incubation, 20 μl of 5 mg/ml MTT solution was added to each well, then 100 µl/well of dissolving solution was added after 4 hours. The samples were put in an incubator, and a full-wavelength multifunctional enzyme label machine was used after dissolving. The OD value at 570 nm was measured.
# (§5) Samples according to Table 14 were also tested for proliferation inhibitor of three colon cancer lines HT29, HCT116 and colo205 by Compound A-Xln, anti-colon cancer agent 5FU/O, and combination of Compound A-Xln and 5FU/O. The results are shown in FIGS. 15-17.
# [3] = system: colon cancer cell line HCT116; assay: Combination therapy MTT assay; type: cell-based, human
# Experimental: as §4, §5
# [4] = system: colon cancer cell line colo205; assay: Combination therapy MTT assay; type: cell-based, human
# Experimental: as §4, §5
# PDGFRβ(h) = PDGFRβ(h) (Homo sapiens, UniProt P09619); assay: Kinase inhibition; type: biochemical
# Source text: as §1
# (§6) For the kinase inhibition tests, receptor tyrosine kinases are selected from FGFR1(h), FGFR2(h), FGFR3(h), Flt1(h) (VEGFr1), Flt4(h) (VEGFr3), KDR(h) (VEGFr2), Aurora-B, PDGFRα(h) and PDGFRβ(h). […] […].
# PDGFRα(h) = PDGFRα(h) (Homo sapiens, UniProt P16234); assay: Kinase inhibition; type: biochemical
# Chain of PDGFRα(h) (P16234 24-1089): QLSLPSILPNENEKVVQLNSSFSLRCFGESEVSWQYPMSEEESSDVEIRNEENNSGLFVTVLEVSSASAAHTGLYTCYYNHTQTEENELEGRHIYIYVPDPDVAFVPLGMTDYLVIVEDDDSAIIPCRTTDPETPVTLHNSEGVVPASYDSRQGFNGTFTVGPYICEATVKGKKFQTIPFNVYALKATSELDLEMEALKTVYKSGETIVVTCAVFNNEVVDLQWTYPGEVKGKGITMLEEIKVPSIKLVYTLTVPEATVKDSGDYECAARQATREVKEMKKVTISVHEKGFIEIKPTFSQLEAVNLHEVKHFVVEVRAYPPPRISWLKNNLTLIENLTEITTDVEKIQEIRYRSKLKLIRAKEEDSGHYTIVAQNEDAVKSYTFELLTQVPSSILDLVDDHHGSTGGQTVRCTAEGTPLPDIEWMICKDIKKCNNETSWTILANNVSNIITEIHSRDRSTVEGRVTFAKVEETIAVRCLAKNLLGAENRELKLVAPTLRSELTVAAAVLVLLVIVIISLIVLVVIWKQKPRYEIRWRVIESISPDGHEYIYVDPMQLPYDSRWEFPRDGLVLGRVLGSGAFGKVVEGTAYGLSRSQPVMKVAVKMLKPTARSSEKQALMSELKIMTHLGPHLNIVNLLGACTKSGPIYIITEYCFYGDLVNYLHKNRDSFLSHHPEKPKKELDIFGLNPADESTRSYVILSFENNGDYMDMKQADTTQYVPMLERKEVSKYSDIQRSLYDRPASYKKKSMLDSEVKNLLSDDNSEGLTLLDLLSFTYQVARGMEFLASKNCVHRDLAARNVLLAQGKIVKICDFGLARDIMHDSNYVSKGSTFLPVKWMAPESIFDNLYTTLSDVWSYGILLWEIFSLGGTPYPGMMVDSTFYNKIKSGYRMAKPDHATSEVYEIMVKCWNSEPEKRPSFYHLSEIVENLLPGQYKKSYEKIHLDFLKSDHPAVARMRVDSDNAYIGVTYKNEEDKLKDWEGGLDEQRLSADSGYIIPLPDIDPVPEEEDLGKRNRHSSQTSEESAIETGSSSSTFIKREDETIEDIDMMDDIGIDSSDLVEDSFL
# Source text: as §1, §6
# HepG2 = assay: In vitro MTT (proliferation) assay; type: cell-based; conditions: Homo sapiens, Liver
compound,measurement,setting,value
"COc1cc2c(Oc3ccc4[nH]c(C)cc4c3F)ccnc2cc1OCCN1CC(O)C2(CC2)C1 (centres unmarked) [Compound A-Xln, 5-(2-(4-(4-fluoro-2-methyl-1H-indol-5-yloxy)-6-methoxyquinolin-7-yloxy)ethyl)-5-azaspiro[2.4]-heptan-7-ol]",Mean tumor volume D0,[1]; 5 mg/kg/Qd i.g.,127.8 mm^3
same,Mean tumor volume D17,[1]; 5 mg/kg/Qd i.g.,1625.3 mm^3
same,T/C D17,[1]; 5 mg/kg/Qd i.g.,72.04%
same,Mean tumor volume D0,[1]; 15 mg/kg/Qd i.g.,128.5 mm^3
same,Mean tumor volume D17,[1]; 15 mg/kg/Qd i.g.,829.0 mm^3
same,T/C D17,[1]; 15 mg/kg/Qd i.g.,36.67%
same,Efficacy of combination treatment with an anti-PD1 antibody agent,"[1]; CT26 model, Compound A-Xln once daily plus anti-mouse PD-1 200 μg/mouse every 3 days",increased efficacy
same,IC50,Molt-4,5.53 ± 2.78 µM
same,IC50,HL-60,1980 ± 1130 nM
same,IC50,KDR(h) (VEGFr2),15 nM
same,IC50,95-D,4.92 ± 2.26 µM
same,IC50,Flt4(h) (VEGFr3),2 nM
same,IC50,FGFR2(h),8 nM
same,IC50,FGFR1(h),4 nM
same,IC50,FGFR3(h),6 nM
same,IC50,Flt1(h) (VEGFr1),4 nM
same,IC50,Aurora-B,47 nM
same,Inhibition activity in sequential dosing,"[2]; HT29, Compound A-Xln and 5FU/O dosed Day 1/Day 2 in either order",higher activity on regimen of dosing chemotherapy agents first followed by dosing Compound A later
same,Proliferation inhibition in combination,"[2]; HT29, combined with 5FU/O",increased
same,Inhibition activity in sequential dosing,"[3]; HCT116, Compound A-Xln and 5FU/O dosed Day 1/Day 2 in either order",higher activity on regimen of dosing chemotherapy agents first followed by dosing Compound A later
same,Proliferation inhibition in combination,"[3]; HCT116, combined with 5FU/O",increased
same,Inhibition activity in sequential dosing,"[4]; colo205, Compound A-Xln and 5FU/O dosed Day 1/Day 2 in either order",higher activity on regimen of dosing chemotherapy agents first followed by dosing Compound A later
same,Proliferation inhibition in combination,"[4]; colo205, combined with 5FU/O",increased
same,IC50,PDGFRβ(h),26 nM
same,IC50,PDGFRα(h),160 nM
same,IC50,HepG2,9.12 ± 3.06 µM
